The source of these data is patent US20240024289A1, “TREATMENT OF BIPOLAR DISORDERS AND PSYCHOSIS USING DEXMEDETOMIDINE HYDROCHLORIDE” (BioXcel Therapeutics, Inc., priority 2020, published 2024).

Like-named read-outs stand apart in the source and are kept apart here.

The test system of assay [1] is Male C57/B16 mice.
Excerpt: This system uses features derived from mouse behavioral data to classify compounds for their ability to treat neuro-psychiatric symptoms by comparing the features to a proprietary reference database of behavioral feature sets that are linked to classes of marketed drugs known to treat neuro-psychiatric symptoms. Thus the system can be used as a model to identify the psychiatric effect of a compound by comparing the effects of the compounds against drugs with known validated effects.
Once all features are extracted from the raw data through an automated pipeline, proprietary bioinformatics algorithms are used to decorrelate groups of features and find the combination of values that best separate different groups of interest.
SmartCube reference data used herein include anti-psychotics tested at several dose ranges. […] Anti-psychotics, when administered at higher doses, can engage additional receptor systems and thus affect mouse behavior differently.
Animals: Male C57/B16 mice (N=12 per group) from Taconic Laboratories were used. Upon receipt, mice were group-housed in OPTI mouse ventilated cages with 4 mice per cage. Mice were acclimated to the colony room for at least one week prior to test and subsequently tested at approximately 8-9 weeks of age. All animals were examined, handled, and weighed prior to initiation of the study to assure adequate health and suitability and to minimize non-specific stress associated with manipulation.
Treatment: 7 groups (N=12 per group)
All compounds tested were formulated in NP3 (vehicle solution): 5% Pharmasolve; 30% P3 (1:1:1 PEG200:PEG400:propylene glycol); 65% saline; pH is 5.1-6.
All SmartCube runs were conducted with NP3 as vehicle and under identical settings. […] Test compounds were injected intraperitoneally (IP) for 15 min before animals were placed in SmartCube for assessment.
The results for the class analyses are presented as standardized bar charts with percentages that sum to 100 for each dose. The percentage indicates the probability the classifier can differentiate between the vehicle group and test group. […]
The test system of assay [2] is Male C57/B16 mice. The note with it: reference data from Psychogenics, cited from earlier work.

As for `Cc1cccc([C@H](C)c2cnc[nH]2)c1C` [Dexmedetomidine, (+) 4-(S)-[1-(2,3-dimethylphenyl)ethyl]-1H-imidazole], the SmartCube class signature result in the assay on Male C57/B16 mice [1] (IP, 1, 2 and 5 mcg/kg) is on record as “cannot distinguish the mouse behaviour from behaviour of mice on vehicle”; with Male C57/B16 mice [1] (IP, 10, 20 and 50 mcg/kg (0.01, 0.02, 0.05 mg/kg), 15 min before test) it was “antipsychotic signature”; in the assay on Male C57/B16 mice [1] (IP, higher doses) it was “high dose of anti-psychotic”.

Turning to `N=C(N)NC(=O)Cc1c(Cl)cccc1Cl` [Guanfacine], the SmartCube class signature result with Male C57/B16 mice [2] (higher doses) is “high dose anti-psychotic”; in the assay on Male C57/B16 mice [2] (therapeutically effective doses), “unable to assign signature”.
